# Experimental data published in paper PMC7778606, “Development of the phenylpyrazolo[3,4-d]pyrimidine-based, insulin-like growth factor receptor/Src/AXL-targeting small molecule kinase inhibitor” (Theranostics, 2021).
# Legend:
# NSCLC cell lines = assay: MTT assay, viability of various NSCLC cell lines; type: cell-based; conditions: Homo sapiens; NSCLC cells with various genetic backgrounds and histologies
# Method: (§1) Cells were seeded into 96-well plates at a density of 1-2 × 10^3 cells/well and incubated for 24 h. Cells were treated with vehicle or various concentrations of test compounds for two (PC9 and PC9/ER cells) or three (other cells) days. Cells were further incubated with MTT solution (final concentration of 500 μg/mL) for 4 h at 37 °C. The formazan products were dissolved in dimethyl sulfoxide (DMSO), and the absorbance was measured at 570 nm. The data are presented as a percentage of the control group.
# IKK-beta = molecular target: T1, IKK-beta (Homo sapiens, UniProt O14920); assay: KINOMEscan competition binding assay; conditions: LL6 at 10 μM; read-out: Percent Control
# T1 construct: purchased DiscoverX KINOMEscan
# Method: (§2) Kd values were obtained by KINOMEscan from DiscoverX (San Diego, CA, USA). To briefly summarize, Kd was measured by a competition binding assay that quantitatively measures the ability of a compound to compete with an immobilized ligand. […] Dose response curves of 11 points are obtained for Kd values, which are measured in duplicate. See more details in the cited references [39]-[42] and see also at www.discoverx.com.
# EGFR(L858R) = molecular target: T2, EGFR(L858R) (Homo sapiens, UniProt P00533, L858R); assay: KINOMEscan competition binding assay; conditions: LL6 at 10 μM; read-out: Percent Control
# T2 construct: purchased DiscoverX KINOMEscan
# Method: as §2
# PDGFRA = molecular target: T3, PDGFRA (Homo sapiens, UniProt P16234); assay: KINOMEscan competition binding assay; conditions: LL6 at 10 μM; read-out: Percent Control
# T3 construct: purchased DiscoverX KINOMEscan
# Method: as §2
# ZAP70 = molecular target: T4, ZAP70 (Homo sapiens, UniProt P43403); assay: KINOMEscan competition binding assay; conditions: LL6 at 10 μM; read-out: Percent Control
# T4 construct: purchased DiscoverX KINOMEscan
# Method: as §2
# FGFR2 = molecular target: T5, FGFR2 (Homo sapiens, UniProt P21802); assay: KINOMEscan competition binding assay; conditions: LL6 at 10 μM; read-out: Percent Control
# T5 construct: purchased DiscoverX KINOMEscan
# Method: as §2
# PIM1 = molecular target: T6, PIM1 (Homo sapiens, UniProt P11309); assay: KINOMEscan competition binding assay; conditions: LL6 at 10 μM; read-out: Percent Control
# T6 construct: purchased DiscoverX KINOMEscan
# Method: as §2
# [1] = molecular target: T7, TYK2(JH1domain-catalytic) (Homo sapiens, UniProt P29597); assay: KINOMEscan competition binding assay; conditions: LL6 at 10 μM; read-out: Percent Control
# T7 construct: TYK2(JH1domain-catalytic); purchased DiscoverX KINOMEscan
# Method: as §2
# PCTK1 = molecular target: T8, PCTK1 (Homo sapiens, UniProt Q00536); assay: KINOMEscan competition binding assay; conditions: LL6 at 10 μM; read-out: Percent Control
# T8 construct: purchased DiscoverX KINOMEscan
# Method: as §2
# ERK1 = molecular target: T9, ERK1 (Homo sapiens, UniProt P27361); assay: KINOMEscan competition binding assay; conditions: LL6 at 10 μM; read-out: Percent Control
# T9 construct: purchased DiscoverX KINOMEscan
# Method: as §2
# CDK11 = molecular target: T10, CDK11 (Homo sapiens, UniProt Q9BWU1); assay: KINOMEscan competition binding assay; conditions: LL6 at 10 μM; read-out: Percent Control
# T10 construct: purchased DiscoverX KINOMEscan
# Method: as §2
# PLK4 = molecular target: T11, PLK4 (Homo sapiens, UniProt O00444); assay: KINOMEscan competition binding assay; conditions: LL6 at 10 μM; read-out: Percent Control
# T11 construct: purchased DiscoverX KINOMEscan
# Method: as §2
# p38-beta = molecular target: T12, p38-beta (Homo sapiens, UniProt Q15759); assay: KINOMEscan competition binding assay; conditions: LL6 at 10 μM; read-out: Percent Control
# T12 construct: purchased DiscoverX KINOMEscan
# Method: as §2
# NSCLC cells [2] = assay: Transwell migration assay; type: cell-based, human; conditions: concentration-dependent, 8-12 h after treatment
# [3] = test system: H1944 and A549 xenograft tumors; assay: NSCLC xenograft tumor model; type: in vivo, NOD/SCID mice; conditions: 80 mg/kg
# Method: All animal experiments were performed according to protocols approved by the Seoul National University Institutional Animal Care and Use Committee. Mice were fed standard mouse chow and water ad libitum and housed in temperature- and humidity-controlled facilities with a 12-h light/12-h dark cycle. For xenograft experiments, H1944 and A549 cells (1×10^6 cells/spot, diluted in equal amounts of PBS and Matrigel) were subcutaneously injected into the right flank of 6-week-old non-obese diabetic-severe combined immunodeficiency (NOD/SCID) mice. After the tumor volume reached 50-150 mm^3, the mice were randomly grouped and treated with vehicle [10% DMSO in 60% polyethylene glycol (PEG) 400 solution] or LL6 (80 mg/kg) 6 days per week for 2 weeks. Tumor growth was determined by measuring the short and long diameters of the tumor with a caliper, and body weight was measured once or twice per week to monitor toxicity. Additionally, to evaluate the effect of LL6 on mutant Kras-driven lung tumorigenesis, 2-month-old Kras^G12D/+ transgenic mice were randomized and treated with vehicle or LL6 (80 mg/kg) for 8 weeks. The mice were euthanized, and tumor formation was evaluated and compared with that of the vehicle-treated control group. Microscopic evaluations of the H&E-stained lung tissue were also performed to measure mean tumor number (N) and volume (V) in a blinded fashion. The number and size of tumors were calculated in five sections uniformly distributed throughout each lung. In both animal experiments, the tumor volume and burden of each sample were calculated using the following formulas: Tumor volume (mm^3) = (short diameter)^2 × (long diameter) × 0.5; Tumor burden (mm^3) = number of tumors × the average of tumor volume.
# ADCK3 = molecular target: T13, ADCK3 (Homo sapiens, UniProt Q8NI60); assay: KINOMEscan competition binding assay; conditions: LL6 at 10 μM; read-out: Percent Control
# T13 construct: purchased DiscoverX KINOMEscan
# Method: as §2, with “To” for “Kd values were obtained by KINOMEscan from DiscoverX (San Diego, CA, USA). To”
# [4] = molecular target: T14, ABL1(T315I)-phosphorylated (Homo sapiens, UniProt P00519, T315I); assay: KINOMEscan competition binding assay; conditions: LL6 at 10 μM; read-out: Percent Control
# T14 construct: purchased DiscoverX KINOMEscan
# Method: as §2, with “To” for “Kd values were obtained by KINOMEscan from DiscoverX (San Diego, CA, USA). To”
# ACVR1B = molecular target: T15, ACVR1B (Homo sapiens, UniProt P36896); assay: KINOMEscan competition binding assay; conditions: LL6 at 10 μM; read-out: Percent Control
# T15 construct: purchased DiscoverX KINOMEscan
# Method: as §2, with “To” for “Kd values were obtained by KINOMEscan from DiscoverX (San Diego, CA, USA). To”
# IGF-1R = assay: KINOMEscan competition binding assay; set-up: species or system human
# Method: as §2
# AXL = assay: KINOMEscan competition binding assay; set-up: species or system human
# Method: as §2
# Src = assay: KINOMEscan competition binding assay; set-up: species or system human
# Method: as §2
# H522 cells = assay: MTT assay, viability of H522 cells; type: cell-based; conditions: Homo sapiens, NCI-H522, 72 h, three days, read-out: IC50 against the viability
# Method: as §1
# NSCLC cells [5] = assay: Anchorage-dependent colony formation assay; type: cell-based, human; conditions: subset of NSCLC cells
# Method: Cells were seeded into 6-well plates at a density of 300 cells/well and treated with LL6. The drug-containing medium was changed once or twice a week. After incubation for 10-14 days, colonies were fixed with 100% methanol, stained with 0.002% crystal violet solution, and washed with deionized water several times. The colonies were imaged and manually counted.
structure (smiles),measurement,setting,value
Nc1ncnc2c1c(-c1ccc(Cl)cc1)nn2CCn1cc(COc2ccc(Nc3nccc(Nc4cnc5ccccc5c4)n3)cc2)nn1 [LL6],IC50,NSCLC cell lines,~2.5 µM
same,remaining binding at 10 µM,IKK-beta,100%
same,remaining binding at 10 µM,EGFR(L858R),88%
same,remaining binding at 10 µM,PDGFRA,64%
same,remaining binding at 10 µM,ZAP70,100%
same,remaining binding at 10 µM,FGFR2,62%
same,remaining binding at 10 µM,PIM1,98%
same,remaining binding at 10 µM,[1],100%
same,remaining binding at 10 µM,PCTK1,78%
same,remaining binding at 10 µM,ERK1,100%
same,remaining binding at 10 µM,CDK11,13%
same,remaining binding at 10 µM,PLK4,66%
same,remaining binding at 10 µM,p38-beta,65%
same,migration of NSCLC cells,NSCLC cells [2],effectively suppressed
same,tumor growth and weight,"[3]; H1944 and A549 xenografts, 6 days per week for 2 weeks",significantly reduced
same,expression of phosphorylated IGF-1R and Src in tumors,[3]; Western blot of xenograft tumors,substantially suppressed
same,body weight,[3]; xenograft-bearing mice,minimal changes
same,remaining binding at 10 µM,ADCK3,67%
same,remaining binding at 10 µM,[4],100%
same,remaining binding at 10 µM,ACVR1B,50%
same,Kd,"IGF-1R; IGF-1R, 11-point dose response, duplicate",5 µM
same,inhibition,"IGF-1R; IGF-1R, LL6 at 10 µM",> 65%
same,Percent Control,IGF-1R; LL6 at 10 μM,16%
same,Kd,"AXL; AXL, 11-point dose response, duplicate",1.6 µM
same,inhibition,"AXL; AXL, LL6 at 10 µM",> 65%
same,Percent Control,AXL; LL6 at 10 μM,22%
same,Percent Control,Src; LL6 at 10 μM,26%
same,Kd,"Src; Src, 11-point dose response, duplicate",3.4 µM
same,inhibition,"Src; Src, LL6 at 10 µM",> 65%
same,IC50,H522 cells,3.55 µM
same,"colony formation, anchorage-dependent",NSCLC cells [5],significantly suppressed
